Broadly, the GI50 is the concentration at which growth is held to half of that of the control. Higher therefore signals lower sensitivity of the cells. What is called IC50 is the concentration needed to halve the response being measured. High values mean weaker potency, low ones greater potency. What is called EC50 is the concentration needed to bring the measured effect to its halfway point. Low values mean a more potent agent, high ones a less potent agent. What is called Papp is the rate of passage across a membrane or cell layer, normalised by area and donor concentration. Read a high Papp as fast passage. In general, efflux ratio refers to a quotient of directional permeabilities that is used to spot active efflux.

One data set has as its system Karpas-422 cell lines. In words: Karpas-422 viability assay (Cell Titer-Glo, Day 8). It is filed as cell-based. As to conditions: Cell Titer-Glo on Day 8. The method, then:
Karpas-422 cell lines were obtained from DSMZ (Braunschweig, Germany) and were grown in RPMI-1640 media. All media contained 10% fetal bovine serum (FBS) and 1% penicillin/streptomycin (Invitrogen). 20K cells per well were plated onto 96 well compound coated plates. Cells were split and seeded at original plating density (based on the DMSO well counts) every 4 days into plates containing fresh EZH2 inhibitors. Relative cell numbers were assessed by Cell Titer-Glo luminescent cell viability assay (Promega) on Day 8. GraphPad Prism 5 was used for curve fitting and GI50 values were reported.
On the technique in general: ATP-based viability assays read luminescence as a measure of living cells.

Another data set addresses PRC2 containing wt EZH2 (Homo sapiens (Human), UniProt Q15910). Kind of data set: EZH2 biochemical assay (IC50), 3H-SAM incorporation into biotinylated H3 peptide. As to conditions: 30 pM PRC2 with wt EZH2, 3-5 h pre-incubation. The procedure: EZH2 biochemical assay (IC50): Compound potencies were assessed through incorporation of ^3H-SAM into a biotinylated H3 peptide. Specifically, 30 pM PRC2 containing wt EZH2 (pentameric complex prepared in-house) was pre-incubated with 450 nM SAM, 450 nM ^3H-SAM, 2 μM H3K27me3 activating peptide (H2N-RKQLATKAAR(Kme3)SAPATGGVKKP-amide) and compounds (as 10 point duplicate dose response titrations in DMSO, final assay 0.8% DMSO (v/v)) for 3-5 h in 50 mM Tris (pH 8.5), 1 mM DTT, 0.07 mM Brij-35, 0.1% BSA, and 0.8% DMSO in a total volume of 12.5 μl. Reaction was initiated with biotinylated H3 substrate peptide (H2N-RKQLATKAAR(Kmel)SAPATGGVKKP-NTPEGBiot) as a 2 μM stock in 12.5 μl of buffer and allowed to react at room temperature for 18-22 h. Quenching was accomplished by addition of 20 μl of STOP solution (50 mM Tris (pH 8.5), 200 mM EDTA, 2 mM SAH). 35 μl of the quenched solution was transferred to streptavidin coated FlashPlates (PerkinElmer), incubated 1-2 h, washed, and read in a TopCount Reader (PerkinElmer). IC50s were calculated in Genedata Screener using non-linear least square four parameter fits, where the four parameters were IC50, Hill slope, pre-transitional baseline (0% INH), and post-transitional baseline (100% INH).

The next data set relates to H3K27me3 in Hela cells. Kind of data set: H3K27me3 Alpha Hela Assay (AlphaLISA). The data set is classed as cell-based. The method, then: H3K27me3 Alpha Hela Assay (AlphaLISA). Ten different doses of each test compound (in a series of 3-fold dilutions) were plated in duplicate 384-well tissue culture treated plates (Catalog #6007680; Perkin Elmer, Waltham, Mass.). Hela cells grown in culture were trypsinized and counted using a Countess® cell counter (Catalog #C10281; Life Technologies, Grand Island, N.Y.). Cell were diluted to 67,000 cells per mL in10% DMEM (Catalog #10569-010 Life Technologies, Grand Island, N.Y.) and 15 μL (1,000 cells) were plated into each well using the Biotek MicroFlo™ Select Dispenser (BioTek Instruments, Inc. Vermont, USA),) of the 384-well plate. Plates were incubated at 37° C./5% CO2 for 72 hrs. One of the duplicate plates was processed for HeLa assay and the other for viability. 5 μL of Cell-Histone Lysis buffer (1×) (Catalog #AL009F1 Perkin Elmer; Waltham, Mass.) per well was added to the plate processed for AlphaLISA and the plate was incubated at RT for 30 minutes on a plate shaker with low speed (Model# 4625-Q Thermo Scientific; Waltham, Mass.). Then, 10 μL per well Histone Extraction buffer (catalog #AL009F2; Perkin Elmer; Waltham, Mass.) was added and the plate further incubated at RT for 20 min on plate shaker with low speed. Next, 10 μL of 5× mix of anti-K27me3 acceptor beads plus Biotinylated anti-Histone H3 (C-ter) Antibody (diluted to 3 nM final) (Catalog #AL118 Perkin Elmer; Waltham, Mass.) was added in each well. Dilution of the acceptor beads and anti-Histone H3 was done in 1× Histone Detection buffer (Catalog #AL009F3 Perkin Elmer; Waltham, Mass.) which was produced by diluting the 10× stock provided. The plate was sealed with an aluminum plate sealer and incubated at 23° C. for 60 min. Next, 10 μL 5× solution of Streptavidin Donor beads were added (Catalog #6760002 Perkin Elmer; Waltham, Mass.) (20 μg/mL final in 1× Histone Detection Buffer), =plate was sealed with Aluminum plate sealer and incubated at 23° C. for 30 min. The plates were then read using an EnVision-Alpha Reader (model #2104 Perkin Elmer; Waltham, Mass.). […]

The nature of data set [1]: Cellular permeability in MDCK assay. As to conditions: dog, pH 7.4, MDCK II, with P-gp inhibitor GF120918 10 μM; for efflux ratio at 2.5 h, 2 μM: Papp(BA)/Papp(AB). The data set is classed as in vitro ADME. The procedure:
Cell culture: MDCK II cells (obtained from Piet Borst at the Netherlands Cancer Institute) were seeded onto […] (PET) in 96-well BD insert systems at 2.5×10^5 cells/mL until to 4-7 days for confluent cell monolayer formation.
Experimental procedure: Test and reference compounds (nadolol, metoprolol and digoxin) were diluted with transport buffer (HBSS with 10mM Hepes, pH7.4) from stock solution to a concentration of 2 μM (<1% DMSO) and applied to the apical (A) or basolateral (B) side of the cell monolayer. Permeation of the test compounds from A to B direction or B to A direction was determined in duplicate with P-gp inhibitor (GF120918, 10 μM). Digoxin was tested at 10 μM from A to B direction or B to A direction with/without P-gp inhibitor (GF120918, 10 μM) as well, while nadolol and metoprolol were tested at 2 μM in A to B direction without P-gp inhibitor (GF120918, 10 μM) in duplicate. The plate was incubated for 2.5 hours in CO2 incubator at 37±1° C., with 5% CO2 at saturated humidity without shaking. In addition, the efflux ratio of each compound was also determined. Test and reference compounds were quantified by LC/MS/MS analysis based on the peak area ratio of analyte/IS. After transport assay, Lucifer yellow rejection assay are applied to determine the cell monolayer integrity. Buffers are removed from both apical and basolateral chambers, followed by the addition of 75 μL of 100 μM lucifer yellow in transport buffer and 250 μL transport buffer in apical and basolateral chambers, respectively. The plate is incubated for 30 minutes at 37° C. with 5% CO2 and 95% relative humidity without shaking. After 30 minutes incubation, 20 μL of lucifer yellow samples are taken from the apical sides, followed by the addition of 60 μL of Transport Buffer. And then 80 μL of lucifer yellow samples are taken from the basolateral sides. The relative fluorescence unit (RFU) of lucifer yellow is measured at 425/528 nm (excitation/emission) with a Molecular Device M2e plate reader.
Data analysis: The apparent permeability coefficient Papp (cm/s) was calculated using the equation: Papp=(dCr/dt)×Vr/(A×C0) Where dCr/dt is the cumulative concentration of compound in the receiver chamber as a function of time (μM/s); Vr is the solution volume in the receiver chamber (0.075 mL on the apical side, 0.25 mL on the basolateral side); A is the surface area for the transport, i.e. 0.0804 cm2 for the area of the monolayer; C0 is the initial concentration in the donor chamber (μM).
The efflux ratio was calculated using the equation: Efflux Ratio=Papp(BA)/Papp(AB) Percent recovery was calculated using the equation: % Recovery=100×[(Vr×Cr)+(Vd×Cd)]/(Vd×C0) Where Vd is the volume in the donor chambers (0.075 mL on the apical side, 0.25 mL on the basolateral side); Cd and Cr are the final concentrations of transport compound in donor and receiver chambers, respectively.
Percent of lucifer yellow in basolateral well is calculated using the equation:
[formula] where RFUApical and RFUBasolateral are the relative fluorescence unit values of lucifer yellow in the apical and basolateral wells, respectively; VApical and VBasolateral are the volume of apical and basolateral wells (0.075 mL and 0.25 mL), respectively. Percent lucifer yellow should be less than 2.

Where [2] appears, read: Homo sapiens, KARPAS-422, 192 h.

PRC2 containing wt EZH2, sequence (Q15910 whole entry): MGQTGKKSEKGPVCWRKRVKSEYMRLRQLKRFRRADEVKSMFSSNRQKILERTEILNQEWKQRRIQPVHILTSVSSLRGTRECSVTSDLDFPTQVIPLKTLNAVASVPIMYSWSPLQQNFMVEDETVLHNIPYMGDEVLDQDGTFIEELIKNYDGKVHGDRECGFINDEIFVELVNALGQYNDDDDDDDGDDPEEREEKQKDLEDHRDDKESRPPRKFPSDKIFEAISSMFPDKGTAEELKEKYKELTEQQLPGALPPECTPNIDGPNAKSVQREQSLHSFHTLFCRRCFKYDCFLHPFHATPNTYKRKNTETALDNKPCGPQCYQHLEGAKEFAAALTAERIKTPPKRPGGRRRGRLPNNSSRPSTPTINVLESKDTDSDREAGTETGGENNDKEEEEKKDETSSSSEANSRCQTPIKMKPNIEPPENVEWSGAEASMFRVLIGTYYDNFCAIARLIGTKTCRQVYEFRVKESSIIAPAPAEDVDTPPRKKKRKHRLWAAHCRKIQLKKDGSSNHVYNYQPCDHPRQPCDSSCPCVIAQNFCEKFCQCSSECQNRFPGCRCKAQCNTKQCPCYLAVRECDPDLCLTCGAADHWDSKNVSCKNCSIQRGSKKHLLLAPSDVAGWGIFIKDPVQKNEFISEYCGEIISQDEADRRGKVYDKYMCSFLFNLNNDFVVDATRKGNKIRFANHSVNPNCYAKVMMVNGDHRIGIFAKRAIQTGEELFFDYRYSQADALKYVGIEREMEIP
PRC2 containing wt EZH2, sequence (O75530 whole entry partner): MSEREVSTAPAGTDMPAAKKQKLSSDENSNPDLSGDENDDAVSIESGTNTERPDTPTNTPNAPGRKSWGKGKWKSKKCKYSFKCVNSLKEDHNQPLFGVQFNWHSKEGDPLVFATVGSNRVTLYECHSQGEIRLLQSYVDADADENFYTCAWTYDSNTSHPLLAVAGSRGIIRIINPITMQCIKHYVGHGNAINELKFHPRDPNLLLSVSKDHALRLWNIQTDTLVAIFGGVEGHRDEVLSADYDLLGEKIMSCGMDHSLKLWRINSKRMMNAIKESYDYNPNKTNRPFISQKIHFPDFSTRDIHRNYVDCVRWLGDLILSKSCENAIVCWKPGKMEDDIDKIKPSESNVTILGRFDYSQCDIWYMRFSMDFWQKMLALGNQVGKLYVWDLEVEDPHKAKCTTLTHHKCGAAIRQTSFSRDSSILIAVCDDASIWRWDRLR
PRC2 containing wt EZH2, sequence (Q15022 whole entry partner): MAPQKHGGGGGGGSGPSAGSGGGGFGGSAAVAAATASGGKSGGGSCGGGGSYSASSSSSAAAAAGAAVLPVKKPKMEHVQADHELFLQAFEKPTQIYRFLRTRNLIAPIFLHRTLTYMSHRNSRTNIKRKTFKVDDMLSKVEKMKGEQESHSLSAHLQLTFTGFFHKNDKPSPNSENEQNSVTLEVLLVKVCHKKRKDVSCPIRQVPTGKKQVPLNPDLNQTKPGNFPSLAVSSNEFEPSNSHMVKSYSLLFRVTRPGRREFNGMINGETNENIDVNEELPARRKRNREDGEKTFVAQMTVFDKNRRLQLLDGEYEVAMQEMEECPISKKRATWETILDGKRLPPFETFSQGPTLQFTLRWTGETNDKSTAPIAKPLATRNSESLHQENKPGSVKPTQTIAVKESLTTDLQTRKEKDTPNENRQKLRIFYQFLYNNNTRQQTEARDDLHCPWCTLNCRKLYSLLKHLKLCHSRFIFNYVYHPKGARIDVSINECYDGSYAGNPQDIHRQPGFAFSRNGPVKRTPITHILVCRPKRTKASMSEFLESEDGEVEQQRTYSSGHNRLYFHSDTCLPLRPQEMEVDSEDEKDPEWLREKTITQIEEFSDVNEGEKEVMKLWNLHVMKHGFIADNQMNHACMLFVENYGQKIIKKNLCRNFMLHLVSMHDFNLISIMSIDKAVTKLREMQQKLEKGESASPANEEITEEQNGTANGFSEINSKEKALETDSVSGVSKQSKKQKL
PRC2 containing wt EZH2, sequence (Q09028 whole entry partner): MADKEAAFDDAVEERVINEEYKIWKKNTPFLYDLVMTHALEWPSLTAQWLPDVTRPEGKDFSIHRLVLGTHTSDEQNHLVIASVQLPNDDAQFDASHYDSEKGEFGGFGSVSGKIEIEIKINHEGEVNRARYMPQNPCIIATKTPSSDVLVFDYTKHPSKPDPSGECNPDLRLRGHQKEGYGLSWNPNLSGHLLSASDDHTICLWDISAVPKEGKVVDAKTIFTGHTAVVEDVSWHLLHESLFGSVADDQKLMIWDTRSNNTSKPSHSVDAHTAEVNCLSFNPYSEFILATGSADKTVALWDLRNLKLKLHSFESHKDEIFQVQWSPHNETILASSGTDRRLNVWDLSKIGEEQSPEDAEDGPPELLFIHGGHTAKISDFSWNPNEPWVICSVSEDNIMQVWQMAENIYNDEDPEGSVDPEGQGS
PRC2 containing wt EZH2, sequence (Q6ZN18 whole entry partner): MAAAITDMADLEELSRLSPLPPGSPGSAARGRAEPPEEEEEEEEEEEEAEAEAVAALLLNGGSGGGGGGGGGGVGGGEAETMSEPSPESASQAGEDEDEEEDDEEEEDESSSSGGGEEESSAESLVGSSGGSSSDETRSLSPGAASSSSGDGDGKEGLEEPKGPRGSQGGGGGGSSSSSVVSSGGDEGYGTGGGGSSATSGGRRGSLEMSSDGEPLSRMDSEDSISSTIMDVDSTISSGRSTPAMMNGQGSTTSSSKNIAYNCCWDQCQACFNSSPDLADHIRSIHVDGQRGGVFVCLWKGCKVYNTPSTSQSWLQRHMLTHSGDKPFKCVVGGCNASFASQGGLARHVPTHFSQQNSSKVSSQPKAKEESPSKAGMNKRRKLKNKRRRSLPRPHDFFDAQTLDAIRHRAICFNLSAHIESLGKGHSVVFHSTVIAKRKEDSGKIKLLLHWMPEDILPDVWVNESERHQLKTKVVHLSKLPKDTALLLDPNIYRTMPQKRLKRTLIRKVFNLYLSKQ

In the case of `CSc1cc(Cl)[nH]c(=O)c1CNC(=O)c1cc(Cl)c2c(c1C)OC(C)(C1CCC(N3CC(OC(F)F)C3)CC1)O2` (single isomer, unassigned) [Example 2], it took 250 nM to inhibit growth in the data set on Karpas-422 cell lines (setting [2]) by half (GI50). For the same compound, the midpoint of inhibition against PRC2 containing wt EZH2, the IC50, lay at 1.5 nM. Moreover, the EC50 with H3K27me3 in Hela cells (Homo sapiens, HeLa, 72 h) came out at 15 nM.
In the data set on Karpas-422 cell lines, `CSc1cc(C)[nH]c(=O)c1CNC(=O)c1cc(Cl)c2c(c1C)OC(C)(C1CCC(NC3(C(F)(F)F)COC3)CC1)O2` (single isomer, unassigned) [Example 6-Enantiomer 1, 7-chloro-2,4-dimethyl-N-((6-methyl-4-(methylthio)-2-oxo-1,2-dihydropyridin-3-yl)methyl)-2-(4-((3-(trifluoromethyl)oxetan-3-yl)amino)cyclohexyl)benzo[d][1,3]dioxole-5-carboxamide] had a GI50 of 720 nM. On PRC2 containing wt EZH2, this compound gave an IC50 of 1.8 nM. In addition, in the data set on H3K27me3 in Hela cells (72 hrs), the midpoint of the response, the EC50, lay at 39 nM.
In the data set on Karpas-422 cell lines, `CSc1cc(C)[nH]c(=O)c1CNC(=O)c1cc(Cl)c2c(c1C)OC(C)(C1CCC(NC3(C(F)(F)F)COC3)CC1)O2` (single isomer, unassigned) [Example 6-Enantiomer 2] had a GI50 of 53 nM. On PRC2 containing wt EZH2, inhibition was half-maximal at 0.14 nM (IC50). Also, the EC50 with H3K27me3 in Hela cells (72 hrs) stood at 4.2 nM.
Take `CSc1cc(C)[nH]c(=O)c1CNC(=O)c1cc(Cl)c2c(c1C)OC(C)(C1CCC(N3CC(F)(F)C3)CC1)O2` (single isomer, unassigned) [Example 7-Enantiomer 1]: on PRC2 containing wt EZH2, the half-inhibitory concentration (IC50) worked out at 8.6 nM.
In the data set with Karpas-422 cell lines (setting [2]), `CSc1cc(C)[nH]c(=O)c1CNC(=O)c1cc(Cl)c2c(c1C)OC(C)(C1CCC(NC3(CF)COC3)CC1)O2` (single isomer, unassigned) [Example 11 (geometric isomer 1)] returned a GI50 of 8.6 nM. The compound also showed an IC50 against PRC2 containing wt EZH2 of 0.14 nM. Besides, in data set [1], the Papp at 2.5 h, 2 μM amounted to 5.3 ×10⁻⁶ cm/s and the efflux ratio at 2.5 h, 2 μM was 1.3. Also, the EC50 with H3K27me3 in Hela cells (Homo sapiens, HeLa, 72 h) amounted to 1.3 nM.
`CSc1cc(C)[nH]c(=O)c1CNC(=O)c1cc(Cl)c2c(c1C)OC(C)(C1CCC(NC3(CF)COC3)CC1)O2` (single isomer, unassigned) [Example 11 (geometric isomer 2)]: the half-maximal inhibitory concentration (IC50) at PRC2 containing wt EZH2 was 0.18 nM. In the data set on H3K27me3 in Hela cells (72 hrs), the response was half-maximal at 1.7 nM (EC50).
On the same counts, the results for `CSc1cc(C)[nH]c(=O)c1CNC(=O)c1cc(Cl)c2c(c1C)OC(C)(C1CCN(CC(F)(F)F)CC1)O2` (single isomer, unassigned) [Example 14-Enantiomer 1, 7-chloro-2,4-dimethyl-N-((6-methyl-4-(methylthio)-2-oxo-1,2-dihydropyridin-3-yl)methyl)-2-(1-(2,2,2-trifluoroethyl)piperidin-4-yl)benzo[d][1,3]dioxole-5-carboxamide] are 0.037 nM and 1.4 nM.
In turn, `CSc1cc(C)[nH]c(=O)c1CNC(=O)c1cc(Cl)c2c(c1C)OC(C)(C1CCN(CC(F)(F)F)CC1)O2` (single isomer, unassigned) [Example 14-Enantiomer 2, 7-chloro-2,4-dimethyl-N-((6-methyl-4-(methylthio)-2-oxo-1,2-dihydropyridin-3-yl)methyl)-2-(1-(2,2,2-trifluoroethyl)piperidin-4-yl)benzo[d][1,3]dioxole-5-carboxamide] came in with an IC50 against PRC2 containing wt EZH2 of 7 nM. Moreover, in data set [1], the apparent permeability (Papp) at 2.5 h, 2 μM is 13 ×10⁻⁶ cm/s and the efflux ratio at 2.5 h, 2 μM turned out to be 0.56. In addition, the midpoint of the response in the data set on H3K27me3 in Hela cells (72 hrs), the EC50, lay at 210 nM.
For `Cc1cc(Cl)c(CNC(=O)c2cc(Cl)c3c(c2C)OC(C)(C2CCN(CC(F)(F)F)CC2)O3)c(=O)[nH]1` (single isomer, unassigned) [Example 16-Enantiomer 1, 7-chloro-N-((4-chloro-6-methyl-2-oxo-1,2-dihydropyridin-3-yl)methyl)-2,4-dimethyl-2-(1-(2,2,2-trifluoroethyl)piperidin-4-yl)benzo[d][1,3]dioxole-5-carboxamide], on PRC2 containing wt EZH2, the IC50 worked out at 0.31 nM. The same compound displayed an EC50 in the data set with H3K27me3 in Hela cells (72 hrs) of 22 nM.
As to `Cc1cc(Cl)c(CNC(=O)c2cc(Cl)c3c(c2C)OC(C)(C2CCN(CC(F)(F)F)CC2)O3)c(=O)[nH]1` (single isomer, unassigned) [Example 16-Enantiomer 2, 7-chloro-N-((4-chloro-6-methyl-2-oxo-1,2-dihydropyridin-3-yl)methyl)-2,4-dimethyl-2-(1-(2,2,2-trifluoroethyl)piperidin-4-yl)benzo[d][1,3]dioxole-5-carboxamide], on PRC2 containing wt EZH2, the IC50 was > 10 nM. For the same compound, in the data set with H3K27me3 in Hela cells (72 hrs), the EC50 is > 300 nM.

These data come from patent US11274095B2, “Modulators of methyl modifying enzymes, compositions and uses thereof” (Constellation Pharmaceuticals, Inc., priority 2018, dated 2022).
